Our source for the Activity values is ChEMBL document CHEMBL1240317, “Probing cell-division phenotype space and Polo-like kinase function using small molecules” (Nat Chem Biol, 2006).

Molecules are shown by their SMILES. Activity calls are given as the source filed them. The rule behind the calls is not given here.

Type in all cases: functional, cell-based
Conditions in all cases: Chlorocebus aethiops

In experiment [1] the test system is BSC-1. Nature of the experiment: Induction of deffects in mitotic spindle in african green monkey BSC1 cells at 20 uM after 4 hrs by immunocytochemistry.
Experiment [2] has as its system BSC-1. As to the kind of experiment: Induction of severe microtubule disruption in african green monkey BSC1 cells at 20 uM after 4 hrs by immunocytochemistry.
Experiment [3] relates to BSC-1. Nature of the experiment: Induction of reduced mitotic index in african green monkey BSC1 cells at 20 uM after 4 hrs by immunocytochemistry.

Turning to `CCCCNc1nc(Nc2ccc3[nH]ccc3c2)ncc1[N+](=O)[O-]`, the outcome in the experiment with BSC-1 [1], in the experiment with BSC-1 [2] and with BSC-1 [3] was Active.
As for `c1ccc2cc(Nc3nccc(Nc4ccc5c(c4)OCO5)n3)ccc2c1`, the result in the experiment on BSC-1 [1], with BSC-1 [2] and with BSC-1 [3] was Active.
For the compound `CC(=O)Nc1ccc(Nc2ncc([N+](=O)[O-])c(Sc3cccc(Cl)c3)n2)cc1`, the outcome in the experiment with BSC-1 [1], with BSC-1 [2] and with BSC-1 [3] was Active.
Take `Clc1ccc(Nc2nccc(Nc3ccc4c(c3)CCC4)n2)cc1Cl`: the outcome in the experiment with BSC-1 [1] was Active.
Take `O=[N+]([O-])c1cnc(Cl)nc1NC1CCCC1`: the outcome in the experiment with BSC-1 [1] was Active.
For the compound `O=[N+]([O-])c1cnc(NC2CCCCCC2)nc1Nc1ccc2ncsc2c1`, the outcome with BSC-1 [1], with BSC-1 [2] and in the experiment with BSC-1 [3] was Active.
Take `O=[N+]([O-])c1cnc(Nc2ccncc2)nc1NC1CCCC1`: in the experiment on BSC-1 [2], the outcome was Active.
Turning to `O=[N+]([O-])c1cnc(NC2CCCC2)nc1Sc1cccc(Cl)c1`, the result in the experiment with BSC-1 [1], in the experiment with BSC-1 [2] and with BSC-1 [3] was Active.
On to `O=[N+]([O-])c1cnc(-n2ccnc2-c2ccccc2)nc1NC1CCCC1`, for which the outcome with BSC-1 [1], in the experiment with BSC-1 [2] and with BSC-1 [3] was Active.
Turning to `CN1CCN(c2nccc(Nc3ccc4c(c3)OCO4)n2)CC1`, the outcome with BSC-1 [1], in the experiment with BSC-1 [2] and with BSC-1 [3] was Active.
As to `CC(=O)Nc1ccc(Nc2ncc([N+](=O)[O-])c(NC3CCCC3)n2)cc1`, the result in the experiment on BSC-1 [3] was Active.
Turning to `c1ccc2cc(Nc3nccc(Nc4ccc5c(c4)CCC5)n3)ccc2c1`, the outcome in the experiment on BSC-1 [1], in the experiment with BSC-1 [2] and with BSC-1 [3] was Active.
Take `O=C(c1ccccc1)c1ccccc1Nc1nc(NCc2cccs2)ncc1[N+](=O)[O-]`: the outcome in the experiment on BSC-1 [3] was Active.
As to `CN1CCN(c2ccnc(NCc3cccs3)n2)CC1`, the result in the experiment with BSC-1 [1], in the experiment with BSC-1 [2] and in the experiment on BSC-1 [3] was Active.
Take `O=[N+]([O-])c1cnc(Nc2ccc(Cl)c(Cl)c2)nc1Nc1ccc2ncsc2c1`: in the experiment on BSC-1 [1], the result was Active.
On to `O=[N+]([O-])c1cnc(NC(CO)Cc2ccccc2)nc1Nc1ccc2ncsc2c1` (centres undefined), for which the outcome in the experiment with BSC-1 [1], in the experiment with BSC-1 [2] and with BSC-1 [3] was Active.
Consider `CCCCNc1ncc([N+](=O)[O-])c(Nc2ccccc2C(N)=O)n1`, for which the outcome in the experiment on BSC-1 [1], in the experiment with BSC-1 [2] and in the experiment on BSC-1 [3] was Active.
Regarding `CC(=O)Nc1ccc(Nc2nccc(Nc3ccc4[nH]ccc4c3)n2)cc1`, the result with BSC-1 [2] was Active.
In the case of `O=[N+]([O-])c1cnc(Nc2cccc3ncccc23)nc1Nc1ccc2ncsc2c1`, the outcome in the experiment on BSC-1 [2] was Active.
With `O=C(c1ccccc1)c1ccccc1Nc1ncc([N+](=O)[O-])c(Nc2ccc(Cl)c(Cl)c2)n1`, the result in the experiment on BSC-1 [1], with BSC-1 [2] and in the experiment on BSC-1 [3] was Active.
For the compound `CC(C)(C)c1ccc(Nc2ncc([N+](=O)[O-])c(Nc3ccccc3C(N)=O)n2)cc1`, the outcome in the experiment on BSC-1 [2] was Active.
Turning to `c1cc(Nc2ccc3c(c2)OCO3)nc(Nc2ccc3ncsc3c2)n1`, the result in the experiment with BSC-1 [2] was Active.
For the compound `CCCCNc1ncc([N+](=O)[O-])c(Nc2ccc3[nH]ccc3c2)n1`, the outcome in the experiment on BSC-1 [1], in the experiment on BSC-1 [2] and in the experiment with BSC-1 [3] was Active.
On to `CC(=O)Nc1ccc(Nc2nccc(Nc3ccc4c(c3)CCC4)n2)cc1`, for which the outcome in the experiment on BSC-1 [1], with BSC-1 [2] and in the experiment on BSC-1 [3] was Active.
In the case of `CC(C)(Nc1ncc([N+](=O)[O-])c(Nc2ccccc2C(N)=O)n1)c1ccccc1`, the result with BSC-1 [2] was Active.
In the case of `CN1CCN(c2ncc([N+](=O)[O-])c(Nc3ccccc3C(=O)c3ccccc3)n2)CC1`, the outcome in the experiment on BSC-1 [1], with BSC-1 [2] and with BSC-1 [3] was Active.
Turning to `CCCCNc1nc(Nc2ccc3ccccc3c2)ncc1[N+](=O)[O-]`, the outcome in the experiment with BSC-1 [1], in the experiment on BSC-1 [2] and with BSC-1 [3] was Active.
Turning to `O=[N+]([O-])c1cnc(Nc2ccc3c(c2)CCC3)nc1Nc1ccc(Cl)c(Cl)c1`, the outcome in the experiment on BSC-1 [1], with BSC-1 [2] and with BSC-1 [3] was Active.
For `CN1CCN(c2ccc(Nc3ncc([N+](=O)[O-])c(Nc4ccc(Cl)c(Cl)c4)n3)cc2)CC1`, the result with BSC-1 [1], in the experiment on BSC-1 [2] and in the experiment with BSC-1 [3] was Active.
In the case of `CC(=O)Nc1ccc(Nc2ccnc(Nc3ccc4ccccc4c3)n2)cc1`, in the experiment with BSC-1 [2], the outcome was Active.
Turning to `O=[N+]([O-])c1cnc(Nc2ccc3ccccc3c2)nc1Nc1ccc2ncsc2c1`, in the experiment with BSC-1 [1], the outcome was Active.
With `CC(=O)Nc1ccc(Nc2ncc([N+](=O)[O-])c(Nc3ccc(Cl)c(Cl)c3)n2)cc1`, the outcome in the experiment on BSC-1 [1], in the experiment on BSC-1 [2] and in the experiment with BSC-1 [3] was Active.
As to `NC(=O)c1ccccc1Nc1nc(NCCCN2CCCC2=O)ncc1[N+](=O)[O-]`, the outcome in the experiment on BSC-1 [1], in the experiment on BSC-1 [2] and in the experiment with BSC-1 [3] was Active.
On to `CC(C)(C)c1ccc(Nc2ncc([N+](=O)[O-])c(Nc3ccc(Cl)c(Cl)c3)n2)cc1`, for which the outcome in the experiment with BSC-1 [1], in the experiment with BSC-1 [2] and in the experiment with BSC-1 [3] was Active.
Regarding `O=[N+]([O-])c1cnc(Nc2ccc3[nH]ccc3c2)nc1Nc1ccc(Cl)c(Cl)c1`, the result in the experiment on BSC-1 [1], in the experiment with BSC-1 [2] and in the experiment on BSC-1 [3] was Active.
As for `CC(=O)Nc1ccc(Nc2ncc([N+](=O)[O-])c(Nc3ccccc3C(N)=O)n2)cc1`, the outcome in the experiment on BSC-1 [1] was Active.
On to `c1cc(Nc2nccc(Nc3ccc4c(c3)CCC4)n2)ccn1`, for which the result in the experiment on BSC-1 [1], in the experiment on BSC-1 [2] and in the experiment with BSC-1 [3] was Active.
Take `COc1ccc(Nc2ncc([N+](=O)[O-])c(Nc3ccc4[nH]ccc4c3)n2)cc1`: in the experiment with BSC-1 [2], the result was Active.
For `CC(=O)Nc1ccc(Nc2ncc([N+](=O)[O-])c(Nc3ccc4ncsc4c3)n2)cc1`, the result with BSC-1 [1], with BSC-1 [2] and in the experiment on BSC-1 [3] was Active.
Consider `NC(=O)c1ccccc1Nc1nc(NC2CCCC2)ncc1[N+](=O)[O-]`, for which the outcome with BSC-1 [1], with BSC-1 [2] and in the experiment on BSC-1 [3] was Active.
As for `CC(C)(C)c1ccc(Nc2ncc([N+](=O)[O-])c(NC3CCCC3)n2)cc1`, the outcome in the experiment with BSC-1 [1], in the experiment on BSC-1 [2] and in the experiment on BSC-1 [3] was Active.
For the compound `O=C(c1ccccc1)c1ccccc1Nc1nc(Nc2ccc3ccccc3c2)ncc1[N+](=O)[O-]`, the result in the experiment with BSC-1 [1], in the experiment with BSC-1 [2] and in the experiment on BSC-1 [3] was Active.
As for `O=[N+]([O-])c1cnc(Nc2ccc(Cl)c(Cl)c2)nc1Nc1ccc2[nH]ccc2c1`, the result in the experiment on BSC-1 [1], in the experiment with BSC-1 [2] and in the experiment with BSC-1 [3] was Active.
For the compound `CC(=O)Nc1ccc(Nc2ccnc(Nc3ccc(Cl)cc3Cl)n2)cc1`, in the experiment on BSC-1 [2], the result was Active.
With `CN1CCN(c2ccc(Nc3ncc([N+](=O)[O-])c(Nc4ccccc4C(N)=O)n3)cc2)CC1`, the result in the experiment with BSC-1 [2] was Active.
On to `CN1CCN(c2ccnc(Cl)n2)CC1`, for which the outcome in the experiment with BSC-1 [1], with BSC-1 [2] and in the experiment with BSC-1 [3] was Active.
For `CCCCNc1nc(Nc2ccc(NC(C)=O)cc2)ncc1[N+](=O)[O-]`, the result in the experiment on BSC-1 [1] was Active.
`O=[N+]([O-])c1cnc(NC2CCCC2)nc1Nc1ccc2ncsc2c1`: the outcome in the experiment with BSC-1 [1], with BSC-1 [2] and with BSC-1 [3] was Active.
On to `CC(C)(C)c1ccc(Nc2ncc([N+](=O)[O-])c(Sc3cccc(Cl)c3)n2)cc1`, for which the outcome in the experiment on BSC-1 [1], with BSC-1 [2] and in the experiment with BSC-1 [3] was Active.
`CC(=O)Nc1ccc(Nc2ccnc(Nc3ccc(C(C)(C)C)cc3)n2)cc1`: the outcome with BSC-1 [2] was Active.
Still for that read-out and setting: the same measure for `Cc1cc(Nc2cc(C3CC3)[nH]n2)nc(Nc2ccc(CC#N)cc2)n1`: “Active”.
Turning to `O=[N+]([O-])c1cnc(Nc2ccc3[nH]ccc3c2)nc1Nc1ccc2ncsc2c1`, the outcome in the experiment on BSC-1 [1] was Active.
On to `O=C(c1ccccc1)c1ccccc1Nc1nc(NCCCN2CCCC2=O)ncc1[N+](=O)[O-]`, for which the result with BSC-1 [1] was Active.
`CC(C)(C)c1ccc(Nc2nccc(-n3ccnc3-c3ccccc3)n2)cc1`: the outcome in the experiment with BSC-1 [1] was Active.
On to `c1ccc(-c2nccn2-c2ccnc(Nc3ccc4ncsc4c3)n2)cc1`, for which the result in the experiment on BSC-1 [2] was Active.
Turning to `CC(=O)Nc1ccc(Nc2ccnc(Nc3ccc4ncsc4c3)n2)cc1`, the outcome with BSC-1 [2] was Active.
As for `O=[N+]([O-])c1cnc(-n2ccnc2-c2ccccc2)nc1Nc1ccc2ncsc2c1`, the outcome in the experiment with BSC-1 [1] was Active.
Take `CC(C)(C)c1ccc(Nc2ncc([N+](=O)[O-])c(Nc3ccc4ncsc4c3)n2)cc1`: in the experiment on BSC-1 [1], the result was Active.
`COc1cc(Nc2ncc([N+](=O)[O-])c(Nc3ccc4c(c3)OCO4)n2)cc(OC)c1OC`: the outcome with BSC-1 [2] was Active.
On to `COc1cc(Nc2ncc([N+](=O)[O-])c(Nc3ccccc3C(N)=O)n2)cc(OC)c1OC`, for which the outcome in the experiment with BSC-1 [2] was Active.
As for `O=C(c1ccccc1)c1ccccc1Nc1nc(NC(CO)Cc2ccccc2)ncc1[N+](=O)[O-]` (centres undefined), the outcome with BSC-1 [1] was Active.
Turning to `CN1CCN(c2ccnc(Sc3cccc(Cl)c3)n2)CC1`, in the experiment with BSC-1 [1], the result was Active.
